From a compilation of properties of binary mixtures (doi:10.1021/ie303238h) come the findings set out here.

The nature of the series: xn = mol fraction of the nth substance listed. The conditions noted are these: 298.15 K, 100 kPa.

A word on the viscosity: it is the resistance of a fluid to flow. Take `CC[n+]1ccn(C)c1.O=S(=O)([N-]S(=O)(=O)C(F)(F)F)C(F)(F)F` + CCCC[n+]1ccn(C)c1.CCOS(=O)(=O)[O-]: the viscosity (x1 = 1) stood at 32.55 mPa·s.

Consider `CCCC[n+]1ccn(C)c1.CCOS(=O)(=O)[O-]` + CC[n+]1ccn(C)c1.O=S(=O)([N-]S(=O)(=O)C(F)(F)F)C(F)(F)F, for which the viscosity runs as follows: (x2 = 0.1009) 212.4 mPa·s; (x2 = 0.2031) 172.4 mPa·s; (x2 = 0.2951) 139.9 mPa·s; (x2 = 0.4027) 109.3 mPa·s; (x2 = 0.5989) 69.7 mPa·s; (x2 = 0.8024) 47.55 mPa·s. Moreover, where the note is “x2 = 0.8996”, the viscosity worked out at 39.59 mPa·s.

Take `CC[n+]1ccn(C)c1.O=S(=O)([N-]S(=O)(=O)C(F)(F)F)C(F)(F)F` + CCOS(=O)(=O)[O-].CC[n+]1ccn(C)c1: the viscosity runs as follows: (x1 = 0.2008) 90.6 mPa·s; (x1 = 0.4356) 72.5 mPa·s; (x1 = 0.494) 67.8 mPa·s; (x1 = 0.5982) 58.31 mPa·s; (x1 = 0.6996) 50.07 mPa·s; (x1 = 0.8) 43.24 mPa·s. The viscosity runs as follows: (x1 = 0.9025) 37.67 mPa·s; (x1 = 1) 32.55 mPa·s.
